The target of experiment [1] is MAP kinase-activated protein kinase 2 (Homo sapiens, UniProt P49137).
Experiment [2] addresses T1, AarF domain-containing protein kinase 1 (Homo sapiens, UniProt Q86TW2).
T1 sequence (Q86TW2 whole entry): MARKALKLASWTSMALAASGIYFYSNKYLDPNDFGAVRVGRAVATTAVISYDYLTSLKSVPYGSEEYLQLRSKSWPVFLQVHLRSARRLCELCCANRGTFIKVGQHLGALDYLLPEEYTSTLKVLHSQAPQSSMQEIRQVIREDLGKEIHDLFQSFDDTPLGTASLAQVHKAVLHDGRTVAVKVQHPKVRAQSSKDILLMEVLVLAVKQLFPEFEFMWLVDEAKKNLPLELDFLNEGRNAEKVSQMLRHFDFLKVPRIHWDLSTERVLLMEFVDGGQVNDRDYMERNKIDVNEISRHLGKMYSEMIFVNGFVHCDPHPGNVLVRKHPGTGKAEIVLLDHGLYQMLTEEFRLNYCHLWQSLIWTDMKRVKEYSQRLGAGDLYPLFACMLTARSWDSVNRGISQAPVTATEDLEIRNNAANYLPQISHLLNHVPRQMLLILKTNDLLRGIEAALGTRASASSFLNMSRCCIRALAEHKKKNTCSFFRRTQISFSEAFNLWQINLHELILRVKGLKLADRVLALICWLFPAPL

The target of another experiment is Deoxycytidine kinase (Homo sapiens, UniProt P27707).
Deoxycytidine kinase, sequence (P27707 whole entry): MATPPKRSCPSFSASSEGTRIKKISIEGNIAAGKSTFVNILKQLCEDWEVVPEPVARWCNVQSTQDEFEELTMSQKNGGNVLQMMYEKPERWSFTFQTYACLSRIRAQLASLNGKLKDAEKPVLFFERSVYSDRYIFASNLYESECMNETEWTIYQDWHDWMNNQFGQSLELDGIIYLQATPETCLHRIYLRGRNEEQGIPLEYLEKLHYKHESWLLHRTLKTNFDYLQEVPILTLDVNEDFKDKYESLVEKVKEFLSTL
The target of experiment [3] is Cyclin-dependent kinase 12 (Homo sapiens, UniProt Q9NYV4).
Experiment [4] addresses Ribosomal protein S6 kinase alpha-5 (Homo sapiens, UniProt O75582).
The next experiment addresses T2, Ephrin type-B receptor 3 (Homo sapiens, UniProt P54753).
T2 sequence (P54753 whole entry): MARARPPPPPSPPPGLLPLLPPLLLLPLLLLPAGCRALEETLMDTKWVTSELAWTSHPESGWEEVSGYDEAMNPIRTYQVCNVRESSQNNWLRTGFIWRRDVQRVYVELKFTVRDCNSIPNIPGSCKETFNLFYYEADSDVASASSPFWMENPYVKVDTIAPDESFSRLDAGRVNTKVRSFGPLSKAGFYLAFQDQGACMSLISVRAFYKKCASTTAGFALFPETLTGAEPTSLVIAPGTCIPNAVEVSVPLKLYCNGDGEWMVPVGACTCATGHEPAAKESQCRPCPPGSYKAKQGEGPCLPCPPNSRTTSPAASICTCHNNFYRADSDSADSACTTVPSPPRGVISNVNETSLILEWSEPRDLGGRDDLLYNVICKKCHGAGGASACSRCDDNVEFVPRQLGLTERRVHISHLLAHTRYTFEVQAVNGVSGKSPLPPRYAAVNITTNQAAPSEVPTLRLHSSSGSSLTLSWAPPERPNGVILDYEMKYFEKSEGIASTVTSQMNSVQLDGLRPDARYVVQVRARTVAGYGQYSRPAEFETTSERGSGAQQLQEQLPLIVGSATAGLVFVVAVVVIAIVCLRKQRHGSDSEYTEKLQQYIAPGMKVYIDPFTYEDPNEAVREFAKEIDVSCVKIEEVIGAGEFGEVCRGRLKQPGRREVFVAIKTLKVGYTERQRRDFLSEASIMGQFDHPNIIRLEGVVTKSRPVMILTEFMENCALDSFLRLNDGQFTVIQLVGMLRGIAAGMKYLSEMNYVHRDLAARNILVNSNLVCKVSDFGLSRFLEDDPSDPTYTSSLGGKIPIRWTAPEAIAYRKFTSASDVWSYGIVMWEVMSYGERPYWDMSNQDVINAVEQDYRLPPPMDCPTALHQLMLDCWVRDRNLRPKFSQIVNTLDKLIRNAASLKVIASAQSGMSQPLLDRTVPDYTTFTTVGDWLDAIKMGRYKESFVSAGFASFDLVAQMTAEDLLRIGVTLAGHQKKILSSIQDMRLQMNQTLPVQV

For experiment [5], the target named is T3, Uncharacterized protein FLJ45252 (Homo sapiens, UniProt Q6ZSR9).
T3 sequence (Q6ZSR9 whole entry): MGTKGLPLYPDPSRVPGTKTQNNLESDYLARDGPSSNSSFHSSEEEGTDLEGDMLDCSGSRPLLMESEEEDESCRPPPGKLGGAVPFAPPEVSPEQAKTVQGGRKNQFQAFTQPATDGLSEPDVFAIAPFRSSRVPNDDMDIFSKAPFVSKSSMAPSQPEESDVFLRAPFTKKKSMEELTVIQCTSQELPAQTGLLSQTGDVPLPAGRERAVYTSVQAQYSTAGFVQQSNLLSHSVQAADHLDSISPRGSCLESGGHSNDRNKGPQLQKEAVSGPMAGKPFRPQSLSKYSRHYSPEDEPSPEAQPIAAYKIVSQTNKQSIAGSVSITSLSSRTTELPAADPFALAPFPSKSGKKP
The following applies: read-out: Kd apparent; k-562, colo 205, sk-n-be(2) and mv-4-11.

Experiment [6] has as its target Guanine nucleotide-binding protein G(i) subunit alpha-2 (Homo sapiens, UniProt P04899).
Experiment [7] addresses Dual specificity tyrosine-phosphorylation-regulated kinase 1A (Homo sapiens, UniProt Q13627).
The target in a further experiment is T4, Activin receptor type-1B (Homo sapiens, UniProt P36896).
T4 sequence (P36896 whole entry): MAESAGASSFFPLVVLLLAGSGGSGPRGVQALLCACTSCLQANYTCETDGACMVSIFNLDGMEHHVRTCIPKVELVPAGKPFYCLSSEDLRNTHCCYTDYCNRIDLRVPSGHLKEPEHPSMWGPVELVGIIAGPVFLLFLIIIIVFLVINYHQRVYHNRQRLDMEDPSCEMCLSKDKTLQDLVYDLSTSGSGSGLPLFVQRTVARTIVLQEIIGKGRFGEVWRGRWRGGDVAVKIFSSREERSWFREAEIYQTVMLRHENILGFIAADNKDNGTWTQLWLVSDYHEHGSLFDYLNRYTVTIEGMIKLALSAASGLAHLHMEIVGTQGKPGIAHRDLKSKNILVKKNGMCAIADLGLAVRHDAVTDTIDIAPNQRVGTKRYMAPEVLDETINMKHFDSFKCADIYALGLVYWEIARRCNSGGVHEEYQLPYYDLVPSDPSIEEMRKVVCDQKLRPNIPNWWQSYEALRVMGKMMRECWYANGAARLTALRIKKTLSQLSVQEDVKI

Experiment [8] has as its target Mitotic checkpoint serine/threonine-protein kinase BUB1 (Homo sapiens, UniProt O43683).
The target in experiment [9] is Bone morphogenetic protein receptor type-1A (Homo sapiens, UniProt P36894).
Bone morphogenetic protein receptor type-1A, sequence (P36894 whole entry): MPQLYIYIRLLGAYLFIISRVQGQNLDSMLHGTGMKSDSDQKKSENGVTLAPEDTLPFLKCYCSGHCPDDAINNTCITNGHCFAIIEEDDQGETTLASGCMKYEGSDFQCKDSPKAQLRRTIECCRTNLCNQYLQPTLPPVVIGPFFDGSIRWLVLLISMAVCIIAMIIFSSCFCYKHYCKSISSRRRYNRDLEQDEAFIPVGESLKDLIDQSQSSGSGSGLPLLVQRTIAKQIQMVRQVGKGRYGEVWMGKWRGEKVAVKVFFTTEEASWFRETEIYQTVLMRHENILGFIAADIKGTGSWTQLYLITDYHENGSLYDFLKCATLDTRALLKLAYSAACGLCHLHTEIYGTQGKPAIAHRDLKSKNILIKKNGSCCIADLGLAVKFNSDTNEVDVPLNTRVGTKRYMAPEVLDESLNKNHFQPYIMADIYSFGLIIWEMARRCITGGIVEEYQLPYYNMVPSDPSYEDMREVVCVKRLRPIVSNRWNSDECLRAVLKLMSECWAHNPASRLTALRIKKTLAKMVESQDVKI
In experiment [10] the target is Mitogen-activated protein kinase 8 (Homo sapiens, UniProt P45983).
Mitogen-activated protein kinase 8, sequence (P45983 whole entry): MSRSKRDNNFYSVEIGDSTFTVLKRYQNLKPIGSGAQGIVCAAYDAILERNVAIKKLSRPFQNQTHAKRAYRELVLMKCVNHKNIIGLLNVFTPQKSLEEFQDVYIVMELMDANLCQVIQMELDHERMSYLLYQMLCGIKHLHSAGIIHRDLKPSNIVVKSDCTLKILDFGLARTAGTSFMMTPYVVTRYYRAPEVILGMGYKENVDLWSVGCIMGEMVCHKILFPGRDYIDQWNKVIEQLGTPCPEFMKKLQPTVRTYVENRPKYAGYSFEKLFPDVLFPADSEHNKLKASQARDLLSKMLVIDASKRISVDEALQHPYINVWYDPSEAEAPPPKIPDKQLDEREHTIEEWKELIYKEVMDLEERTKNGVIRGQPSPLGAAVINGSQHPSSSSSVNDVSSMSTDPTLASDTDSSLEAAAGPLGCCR

Activity calls are given as the source filed them. For most assays here, no stated cut-off is given here; in the data, actives have a measured Kd and inactives only a lower limit. Where only a bound is given, the exact number is not on record here.

MAP kinase-activated protein kinase 2, sequence (P49137 whole entry, the tested form may be a part): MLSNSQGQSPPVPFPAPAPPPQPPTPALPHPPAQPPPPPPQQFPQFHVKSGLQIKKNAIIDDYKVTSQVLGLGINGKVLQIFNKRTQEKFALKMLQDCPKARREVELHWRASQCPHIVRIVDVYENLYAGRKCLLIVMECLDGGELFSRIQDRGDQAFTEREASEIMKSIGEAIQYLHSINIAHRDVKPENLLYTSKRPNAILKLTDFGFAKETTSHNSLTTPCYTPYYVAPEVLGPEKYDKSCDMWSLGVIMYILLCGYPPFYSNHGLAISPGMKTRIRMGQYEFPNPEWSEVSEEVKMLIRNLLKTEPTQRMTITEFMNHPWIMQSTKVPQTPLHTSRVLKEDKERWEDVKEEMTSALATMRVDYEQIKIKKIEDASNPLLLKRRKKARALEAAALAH
Mitotic checkpoint serine/threonine-protein kinase BUB1, sequence (O43683 whole entry): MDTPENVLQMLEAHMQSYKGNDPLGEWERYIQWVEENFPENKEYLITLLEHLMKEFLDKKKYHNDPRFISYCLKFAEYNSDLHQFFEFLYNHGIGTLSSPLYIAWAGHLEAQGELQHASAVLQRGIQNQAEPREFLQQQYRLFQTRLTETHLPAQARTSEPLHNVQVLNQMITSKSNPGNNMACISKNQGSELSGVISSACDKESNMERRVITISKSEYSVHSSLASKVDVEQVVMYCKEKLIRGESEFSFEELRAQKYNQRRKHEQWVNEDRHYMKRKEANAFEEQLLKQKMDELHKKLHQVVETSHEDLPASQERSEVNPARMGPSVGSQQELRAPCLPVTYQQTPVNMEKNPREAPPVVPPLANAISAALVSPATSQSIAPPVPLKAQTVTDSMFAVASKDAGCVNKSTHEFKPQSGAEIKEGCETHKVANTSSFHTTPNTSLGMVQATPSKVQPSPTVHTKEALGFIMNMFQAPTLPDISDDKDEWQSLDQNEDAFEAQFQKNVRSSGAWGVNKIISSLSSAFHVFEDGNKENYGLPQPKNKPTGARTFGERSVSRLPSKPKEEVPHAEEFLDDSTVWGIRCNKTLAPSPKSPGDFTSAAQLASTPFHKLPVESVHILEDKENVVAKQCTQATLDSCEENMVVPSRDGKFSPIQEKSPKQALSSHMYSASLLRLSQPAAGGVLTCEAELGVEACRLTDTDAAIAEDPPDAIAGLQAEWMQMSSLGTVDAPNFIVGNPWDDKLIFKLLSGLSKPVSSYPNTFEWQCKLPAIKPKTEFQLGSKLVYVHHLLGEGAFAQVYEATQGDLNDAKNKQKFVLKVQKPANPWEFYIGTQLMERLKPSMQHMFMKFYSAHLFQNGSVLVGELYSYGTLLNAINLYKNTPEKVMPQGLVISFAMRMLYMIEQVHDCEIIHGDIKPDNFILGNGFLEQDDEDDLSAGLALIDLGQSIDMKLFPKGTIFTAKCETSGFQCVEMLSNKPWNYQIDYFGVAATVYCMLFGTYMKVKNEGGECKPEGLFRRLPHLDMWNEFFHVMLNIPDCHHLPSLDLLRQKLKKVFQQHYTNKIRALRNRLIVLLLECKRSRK
Ribosomal protein S6 kinase alpha-5, sequence (O75582 whole entry): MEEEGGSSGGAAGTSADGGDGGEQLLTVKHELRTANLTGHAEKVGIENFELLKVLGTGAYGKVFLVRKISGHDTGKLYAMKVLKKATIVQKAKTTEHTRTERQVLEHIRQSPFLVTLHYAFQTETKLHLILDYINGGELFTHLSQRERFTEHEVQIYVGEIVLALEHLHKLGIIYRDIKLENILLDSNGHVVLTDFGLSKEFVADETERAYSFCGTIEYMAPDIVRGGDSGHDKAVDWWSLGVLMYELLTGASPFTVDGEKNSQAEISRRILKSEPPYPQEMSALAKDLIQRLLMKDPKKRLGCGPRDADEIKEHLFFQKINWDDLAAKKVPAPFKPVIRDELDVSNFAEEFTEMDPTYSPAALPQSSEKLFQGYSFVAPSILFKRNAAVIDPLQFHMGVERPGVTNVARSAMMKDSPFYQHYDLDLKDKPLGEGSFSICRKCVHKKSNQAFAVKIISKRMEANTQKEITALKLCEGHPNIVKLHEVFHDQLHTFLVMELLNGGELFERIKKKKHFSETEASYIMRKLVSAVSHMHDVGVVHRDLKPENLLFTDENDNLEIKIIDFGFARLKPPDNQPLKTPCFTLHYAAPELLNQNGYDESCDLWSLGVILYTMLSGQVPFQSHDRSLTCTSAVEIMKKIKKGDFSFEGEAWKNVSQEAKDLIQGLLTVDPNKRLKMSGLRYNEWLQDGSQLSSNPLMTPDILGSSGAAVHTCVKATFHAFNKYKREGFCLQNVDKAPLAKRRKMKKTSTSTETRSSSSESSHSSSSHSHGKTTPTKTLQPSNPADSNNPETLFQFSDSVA
Guanine nucleotide-binding protein G(i) subunit alpha-2, sequence (P04899 whole entry): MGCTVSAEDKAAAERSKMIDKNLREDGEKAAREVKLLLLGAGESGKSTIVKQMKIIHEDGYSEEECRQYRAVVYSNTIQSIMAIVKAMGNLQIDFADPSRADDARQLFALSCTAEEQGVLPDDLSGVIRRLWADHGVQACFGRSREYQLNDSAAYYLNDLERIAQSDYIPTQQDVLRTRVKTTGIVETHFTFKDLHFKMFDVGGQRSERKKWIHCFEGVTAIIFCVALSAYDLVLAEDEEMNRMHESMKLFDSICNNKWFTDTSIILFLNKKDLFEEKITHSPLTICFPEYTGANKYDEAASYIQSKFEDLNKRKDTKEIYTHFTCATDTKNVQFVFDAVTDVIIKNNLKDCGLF

For the compound `C[C@@H](Oc1cc(C(=O)Nc2ccc(C(=O)N3CCN(C)CC3)cc2)nnc1N)c1c(Cl)ccc(F)c1Cl`, the Kd (in experiment [1]; in experiment [2]; on Deoxycytidine kinase; in experiment [3]; in experiment [4]; at Ephrin type-B receptor 3) was > 30 µM (inactive) throughout. Besides, the Kd in experiment [5] was 3.36 µM (active); in experiment [6] it was > 30 µM (inactive); in [7], > 30 µM (inactive); on Activin receptor type-1B it was > 30 µM (inactive); in [8], > 30 µM (inactive); in experiment [9] it was > 30 µM (inactive). For the same compound, in experiment [10], the Kd was > 30 µM (inactive).
Consider `Nc1ncnc2c1c(-c1cccc(OCc3ccccc3)c1)cn2[C@H]1C[C@@H](CN2CCC2)C1` [AEW-541], for which the Kd (in experiment [1]; in experiment [2]; at Deoxycytidine kinase; in experiment [3]; in experiment [4]; at Ephrin type-B receptor 3) was > 30 µM (inactive) each time. The Kd (in experiment [5]; in experiment [6]; in experiment [7]; at Activin receptor type-1B; in [8]; in experiment [9]) was > 30 µM (inactive) each time. The Kd in experiment [10] was > 30 µM (inactive).
For `Cc1csc(-c2nnc(Nc3ccc(Oc4ncccc4-c4ccnc(N)n4)cc3)c3ccccc23)c1` [AMG-900], the Kd in experiment [1] was 2.69 µM (active); in experiment [2] it was > 30 µM (inactive); on Deoxycytidine kinase, > 30 µM (inactive); in experiment [3], 2.98 µM; in experiment [4] it was 2.15 µM (active); on Ephrin type-B receptor 3, > 30 µM (inactive). Also, the Kd in [5] was 3.56 µM (active); in experiment [6], > 30 µM (inactive); in experiment [7], > 30 µM (inactive); on Activin receptor type-1B, > 30 µM (inactive); in experiment [8], > 30 µM (inactive); in experiment [9], > 30 µM (inactive). Further, the Kd in experiment [10] is > 30 µM (inactive).
For `O=C(Nc1c[nH]nc1-c1nc2cc(CN3CCOCC3)ccc2[nH]1)NC1CC1` [AT-9283], the Kd in [1] is > 30 µM (inactive); in experiment [2] it was 0.559 µM (active); at Deoxycytidine kinase, > 30 µM (inactive); in experiment [3], > 30 µM (inactive); in experiment [4] it was 1.25 µM (active); on Ephrin type-B receptor 3, > 30 µM (inactive). For the same compound, the Kd in experiment [5] is 0.024 µM (active); in [6], > 30 µM (inactive); in [7], 2.45 µM (active); at Activin receptor type-1B it was 0.811 µM (active); in experiment [8], 0.094 µM (active); in [9] it was 0.388 µM (active). Besides, the Kd in [10] was 0.157 µM (active).
Regarding `C=CC(=O)Nc1cc2c(Nc3ccc(F)c(Cl)c3)ncnc2cc1C#CC(C)(C)N1CCN(C)CC1` [AV-412 FREE BASE], the Kd (in experiment [1]; in experiment [2]; on Deoxycytidine kinase; in experiment [3]; in [4]; at Ephrin type-B receptor 3) was > 30 µM (inactive) throughout. For the same compound, the Kd (in experiment [5]; in [6]; in experiment [7]; at Activin receptor type-1B; in [8]; in experiment [9]) was > 30 µM (inactive) throughout. For the same compound, the Kd in experiment [10] is > 30 µM (inactive).
For the compound `COc1cc([C@@H]2c3cc4c(cc3[C@H](O)[C@H]3COC(=O)[C@@H]23)OCO4)cc(OC)c1OC` [AXL-1717], the Kd (in [1]; in [2]; on Deoxycytidine kinase; in [3]; in experiment [4]; on Ephrin type-B receptor 3) was > 30 µM (inactive) throughout. Besides, the Kd (in [5]; in [6]; in [7]; at Activin receptor type-1B; in [8]; in experiment [9]) was > 30 µM (inactive) in each case. Also, the Kd in experiment [10] is > 30 µM (inactive).

Values taken from ChEMBL document CHEMBL3991601, “The target landscape of clinical kinase drugs” (Science, 2017).
